Reference: patent US20150064221A1, “COMPOUNDS HAVING IMMUNOMUDULATOR ACTIVITY” (priority 2012, published 2015)

Key:
LPS-induced lethality = experiment: LPS-induced lethality; assay type: in vivo, mice
Protocol: VGX-1027 was administered intraperitoneally (A) or orally (p.o.) (B), and its effect on cumulative rate of lethality induced by LPS was evaluated. Data from 2 to 3 independent experiments are shown. Statistical analysis was performed by logrank (Mantel-Cox). *p<0.05 was taken as significant. Each group is compared to the vehicle-treated group.
As expected, most of the control mice either untreated or that received the vehicle of VGX-1027 succumbed to LPS-challenge within 3 days. […] In contrast, the treatment with VGX-1027 given either orally or intraperitoneally administration protect the mice from the lethal effects of LPS in a dose-dependent fashion. When given orally, VGX-1027 was effective at the dose of […] and […] both at 1.5 and 3 mg/mouse.
Lipopolysaccharide (LPS) is the most studied of all TLR agonists because it induces both local and systemic inflammation, and responses to LPS mimic many of the features of tissue injury observed during infections with Gram-negative bacteria. Injection of LPS into mice triggers production of inflammatory cytokines and symptoms that are indistinguishable from those of septic shock.

[1] = test system: systemic lupus erythematosus (SLE); experiment: NZB/NZW F1 model of systemic lupus erythematosus; assay type: in vivo, NZB/NZW F1 mice
Protocol: FIG. 19. Effects of VGX-1027 administration on survival rate (A), proteinuria (B) and serum anti-dsDNA antibodies (C) of NZB/NZW F1 mice treated for 20 weeks with either VGX-1027 or vehicle.
FIG. 20. Histopathological analysis (A) and relative phospho-STAT3 (B) levels in kidney sample of NZB/NZW F1 mice treated for 20 weeks with either VGX-1027 or vehicle.
To determine the effects of VGX-1027 on the development and progression of SLE, lupus-prone NZB/NZW F1 were treated daily with 5 mg/mouse VGX-1027 i.p. for 20 weeks, starting at 16 weeks of age. Control mice received an equal volume of vehicle. Control mice started to die at 20 weeks of age. By week 36, 62.5% of them were dead compared to the only 33.3% of treated mice (p=0.0487 by Log-rank test) (FIG. 19A). Improved survival was correlated with inhibition of renal disease. Proteinuria was assessed once a week. […] Eventually, all of the mice developed proteinuria but the delay in disease progression and prolonged survival of VGX-1027 treated animals remained evident (FIG. 19B).

[2] = test system: splenic mononuclear cells (SMNC); experiment: In vitro proliferation and cytokine synthesis of splenic mononuclear cells; assay type: cell-based, mice
Excerpt: Peritoneal macrophages (PM) and splenic mononuclear cells (SMNC) were isolated from normal mice, cultured in nutrient medium and stimulated with LPS and/or ConA in the absence or presence of VGX-1027. […] VGX-1027 had no effect on MIF expression in either cell type, on proliferation of SMNC, and on IL-10 and Interferon (IFN) γ production by SMNC.

Metabolite monitoring = assay type: in vitro ADME; details: isoxazole ring disruption, single oxidation, single glucuronidation; any species
Protocol: (§1) The highest plasma concentrations generally occurred in 1-2 hours. […] The highest level of inhibition was ˜35% for 2C19 at a 30 μM concentration. […] Lastly, VGX-1027 is stable in human liver S9 fractions (with phase 1 and 2 cofactors) with t1/2>90 minutes, which indicates a low likelihood of metabolism in the liver.

Normal human PBMCs = experiment: Ex vivo immune effects in PBMCs with plasma of dosed subjects; assay type: cell-based; details: LPS 5 μg/ml + plasma of 5th day after dosing
Protocol: Normal human PBMCs were isolated and cultured in the presence of LPS (5 μg/ml) with or without VGX-1027 treated plasma. Plasma samples were obtained by blood collection before and on the 5th day after VGX-1027 dosing in steady state. Cell free supernateants were analyzed for production of TNF-α and IL-1β 24 hours post treatment. Cytokine levels (pg/ml) were assayed by ELISA. Representative results were correlated with pro-inflammatory cytokine inhibition.

[3] = test system: Thioglycollate-elicited macrophages; experiment: TNF-α production of macrophages treated with TLR agonists; assay type: cell-based; details: 10 μg/ml, 48 hours
Protocol: (A) Thioglycollate-elicited macrophages (1×10^6/ml) were stimulated with either LPS (5 μg/ml), zymosan (ZYM, 50 μg/ml), MDP (25 μg/ml), or Poly(I:C) (50 μg/ml) in the presence or absence of VGX-1027 (10 μg/ml). TNF-α was measured 48 hours post treatment. (B) Relative phosphorylations of 1-κBα and p38 were measured at the indicated time points following stimulation with LPS (5 μg/ml). The y-axis is presented as fold change in comparison to the values obtained from LPS-treated cultures alone. * p<0.05.
Thioglycollate-elicited macrophages were treated with multiple TLR agonists for 48 hours. TNF-α production was measured. The following agonists were used to activate the various TLRs.

[4] = test system: enterobacterial antigen-reactive CD4+CD25− T cells; details: in vitro; Mangano et al. 2008; cited from earlier work
NF-kB = NF-kB activation in human macrophages; assay type: cell-based; details: LPS induced, monocyte-derived human macrophages
Oral absorption in dogs = assay type: in vivo
Protocol: as §1

For O=C(O)CC1CC(c2ccccc2)=NO1 (stereo not shown) [VGX-1027, 3-phenyl-4,5-dihydro-5-isoxazoleacetic acid], the “protection from LPS lethality” value (LPS-induced lethality; i.p., between 0.25 and 0.5 mg/mouse) was “dose-dependent protection”, the survival (LPS-induced lethality; lethal dose of LPS (1 mg/mice), i.p. or oral) was “increased the survival” and the “protection from LPS lethality” value (LPS-induced lethality; oral, 2.5 mg/mouse) was “effective”. The “protection from LPS lethality” value (LPS-induced lethality; oral, 1.5 and 3 mg/mouse) was “dosed out”, the LPS-induced lethality (LPS-induced lethality; prophylactic regime (−24 and −1 hour prior to LPS), oral and i.p.) was “significantly reducing” and the LPS-induced lethality (LPS-induced lethality; therapeutic administration) was “powerfully counteracts”. For the same molecule, the “serum anti-dsDNA autoantibodies” value ([1]; 36-weeks old, p<0.0001) was “significant lower levels”, the anti-dsDNA antibodies ([1]; at 26 weeks of age) was “Only slightly increased levels” and the mice dead ([1]; by week 36, 5 mg/mouse i.p. daily for 20 weeks) was 33.3%. The “renal histopathology mean score” value ([1]; end-stage nephritis, p=0.01) was 1.9±0.8, the “relative levels of renal p-STAT3 (ELISA)” value ([1]; p=0.0234) was “significant reduction” and the levels of proteinuria ([1]; throughout the experimental period, p=0.0265) was “significantly lower”. The IL-10 production [2] was “no effect”, the “Interferon (IFN) γ production” value [2] was “no effect” and the MIF expression [2] was “no effect”. The proliferation [2] was “no effect”, the TNF-α production ([2]; LPS and/or ConA stimulated) was “markedly inhibited” and the “metabolite peaks for the 3 monitored masses” value (Metabolite monitoring) was “no metabolite peaks were observed”. For the same molecule, the IL-1β levels (Normal human PBMCs) was “repressed to levels comparable to the negative controls”, the TNF-α levels (Normal human PBMCs) was “repressed to levels comparable to the negative controls” and the TNF-α production ([3]; LPS (5 μg/ml)) was “inhibited”. The TNF-α production ([3]; MDP (25 μg/ml)) was “inhibited”, the TNF-α production ([3]; ZYM (50 μg/ml)) was “inhibited” and the TNF-α production ([3]; poly(I:C) (50 μg/ml)) was “did not affect”. For the same molecule, the “proliferation of enterobacterial antigen-reactive CD4+CD25− T cells” value [4] was “inhibits”, the “DNA binding of NF-kB” value (NF-kB) was “powerfully inhibits in a dose-dependent fashion” and the oral absorption (Oral absorption in dogs) was “rapidly absorbed”. The “time of highest plasma concentrations” value (Oral absorption in dogs) was 1 to 2 h.
